SMILES strings stand for the structures. The source made the active and inactive calls. No cut-off for these calls is given here.

Experimental findings from ChEMBL document CHEMBL4477253, “Oxazolidinone-based allosteric modulators of mGluR5: Defining molecular switches to create a pharmacological tool box” (Bioorg Med Chem Lett, 2016) are described below.

The target of one series is T1, Metabotropic glutamate receptor 5 (Homo sapiens, UniProt P41594). Nature of the series: Positive allosteric modulation of human mGluR5A transfected in HEK293 cells assessed as potentiation of L-glutamate-induced calcium release incubated for 10 mins by FLIPR assay. Type of series: functional, cell-based.
Details: not given
Target sequence in this assay (P41594 whole entry): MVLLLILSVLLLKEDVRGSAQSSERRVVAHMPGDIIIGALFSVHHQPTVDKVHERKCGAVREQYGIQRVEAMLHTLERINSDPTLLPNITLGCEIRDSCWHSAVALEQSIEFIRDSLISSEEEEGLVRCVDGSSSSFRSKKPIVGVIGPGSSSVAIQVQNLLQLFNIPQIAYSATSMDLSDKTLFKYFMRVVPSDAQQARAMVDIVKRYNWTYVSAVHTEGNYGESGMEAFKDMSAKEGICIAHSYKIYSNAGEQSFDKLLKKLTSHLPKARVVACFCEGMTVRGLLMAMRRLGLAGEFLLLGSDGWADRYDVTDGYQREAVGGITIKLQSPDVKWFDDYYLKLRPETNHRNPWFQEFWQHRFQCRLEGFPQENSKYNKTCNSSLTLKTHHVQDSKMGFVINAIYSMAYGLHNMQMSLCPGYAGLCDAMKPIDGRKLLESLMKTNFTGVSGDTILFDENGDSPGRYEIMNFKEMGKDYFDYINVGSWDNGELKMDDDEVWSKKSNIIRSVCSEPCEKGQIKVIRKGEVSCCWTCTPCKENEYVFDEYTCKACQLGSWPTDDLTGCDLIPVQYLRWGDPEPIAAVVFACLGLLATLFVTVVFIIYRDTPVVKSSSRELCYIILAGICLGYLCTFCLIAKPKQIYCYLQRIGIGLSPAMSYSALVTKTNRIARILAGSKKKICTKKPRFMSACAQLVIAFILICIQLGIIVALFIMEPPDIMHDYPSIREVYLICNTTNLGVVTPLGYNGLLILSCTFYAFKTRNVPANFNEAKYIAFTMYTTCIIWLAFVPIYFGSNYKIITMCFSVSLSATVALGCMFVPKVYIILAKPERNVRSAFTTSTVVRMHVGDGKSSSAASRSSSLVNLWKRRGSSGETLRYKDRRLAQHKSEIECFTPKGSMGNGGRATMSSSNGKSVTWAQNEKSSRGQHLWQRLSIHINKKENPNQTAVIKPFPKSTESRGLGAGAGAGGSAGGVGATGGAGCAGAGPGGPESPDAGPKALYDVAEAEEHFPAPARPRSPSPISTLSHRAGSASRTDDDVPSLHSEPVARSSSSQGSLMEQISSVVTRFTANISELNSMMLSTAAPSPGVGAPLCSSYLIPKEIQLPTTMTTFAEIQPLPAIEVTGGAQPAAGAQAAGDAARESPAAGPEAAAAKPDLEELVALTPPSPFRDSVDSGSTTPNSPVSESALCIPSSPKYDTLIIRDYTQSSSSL
Regarding `O=C1N[C@H](c2cccc(C#Cc3ccccc3)c2)[C@@H](c2ccccc2)O1`, the EC50 worked out at 38 nM.
As to `O=C1N[C@H](c2ccnc(C#Cc3ccccc3)c2)[C@@H](c2ccccc2)O1`, the EC50 turned out to be 1.5 nM.
For `O=C1N[C@H](c2cccc(C#Cc3ccccc3)n2)[C@@H](c2ccccc2)O1`, the EC50 turned out to be 9.4 nM.

The target in a further series is T1, Metabotropic glutamate receptor 5. Nature of the series: Displacement of [3H]-MPEPy from human mGluR5A transfected in HEK293 cell membranes after 60 mins by microbeta liquid scintillation counting analysis.
Details: not given
Target sequence in this assay (P41594 whole entry): as above
In turn, `O=C1N[C@H](c2ccnc(C#Cc3ccccc3)c2)[C@@H](c2ccccc2)O1` registered a Ki of 2.1 nM.
Regarding `O=C1N[C@H](c2cccc(C#Cc3ccccc3)n2)[C@@H](c2ccccc2)O1`, the Ki stood at 44 nM.

System in another series: not listed separately
Nature of the series: Fraction unbound in human serum. Type of series: ADME, cell-free.
Details: not given
Consider `O=C1N[C@H](c2cccc(C#Cc3ccccc3)c2)[C@@H](c2ccccc2)O1`, for which the fraction unbound is less than 0.001.
Turning to `O=C1N[C@H](c2cc(C#Cc3ccccc3)ccn2)[C@@H](c2ccccc2)O1`, the fraction unbound worked out at 0.006.
In turn, `O=C1N[C@H](c2ccnc(C#Cc3ccccc3)c2)[C@@H](c2ccccc2)O1` gave a fraction unbound of 0.005.
Still for that read-out and setting: next, `O=C1N[C@H](c2cccc(C#Cc3ccccc3)n2)[C@@H](c2ccccc2)O1`: 0.009.

System in a further series: not listed separately
Put plainly: Fraction unbound in rat serum. Type of series: ADME, cell-free.
Details: not given
Take `O=C1N[C@H](c2cccc(C#Cc3ccccc3)c2)[C@@H](c2ccccc2)O1`: the fraction unbound turned out to be 0.001.
`O=C1N[C@H](c2cc(C#Cc3ccccc3)ccn2)[C@@H](c2ccccc2)O1` had a fraction unbound of 0.009.
`O=C1N[C@H](c2ccnc(C#Cc3ccccc3)c2)[C@@H](c2ccccc2)O1` registered a fraction unbound of 0.012.
On the same count and under the same terms, next, `O=C1N[C@H](c2cccc(C#Cc3ccccc3)n2)[C@@H](c2ccccc2)O1`: 0.009.

System in a further series: not listed separately
Nature of the series: Fraction unbound in mouse serum. It is filed as ADME, cell-free.
Details: not given
`O=C1N[C@H](c2cccc(C#Cc3ccccc3)c2)[C@@H](c2ccccc2)O1` had a fraction unbound of 0.001.
Same read-out and setting: next, `O=C1N[C@H](c2cc(C#Cc3ccccc3)ccn2)[C@@H](c2ccccc2)O1`: 0.01.
The molecule `O=C1N[C@H](c2ccnc(C#Cc3ccccc3)c2)[C@@H](c2ccccc2)O1` returned a fraction unbound of 0.021.
Regarding `O=C1N[C@H](c2cccc(C#Cc3ccccc3)n2)[C@@H](c2ccccc2)O1`, the fraction unbound was 0.011.

The target in another series is T1, Metabotropic glutamate receptor 5. Put plainly: Displacement of [3H]-MPEP from human mGluR5A transfected in HEK293 cells after 60 mins by microbeta liquid scintillation counting analysis. It is filed as cell-based.
Details: not given
Target sequence in this assay (P41594 whole entry): as above
As for `O=C1N[C@H](c2cccc(C#Cc3ccccc3)c2)[C@@H](c2ccccc2)O1`, the affinity, expressed as Ki, was 8.9 nM.

The next series has the same target. Nature of the series: Agonist activity at human mGluR5A transfected in HEK293 cells assessed as induction of calcium release up to 3 uM by FLIPR assay.
Details: not given
Type of series: functional, cell-based.
Target sequence in this assay (P41594 21-1212 limits assumed): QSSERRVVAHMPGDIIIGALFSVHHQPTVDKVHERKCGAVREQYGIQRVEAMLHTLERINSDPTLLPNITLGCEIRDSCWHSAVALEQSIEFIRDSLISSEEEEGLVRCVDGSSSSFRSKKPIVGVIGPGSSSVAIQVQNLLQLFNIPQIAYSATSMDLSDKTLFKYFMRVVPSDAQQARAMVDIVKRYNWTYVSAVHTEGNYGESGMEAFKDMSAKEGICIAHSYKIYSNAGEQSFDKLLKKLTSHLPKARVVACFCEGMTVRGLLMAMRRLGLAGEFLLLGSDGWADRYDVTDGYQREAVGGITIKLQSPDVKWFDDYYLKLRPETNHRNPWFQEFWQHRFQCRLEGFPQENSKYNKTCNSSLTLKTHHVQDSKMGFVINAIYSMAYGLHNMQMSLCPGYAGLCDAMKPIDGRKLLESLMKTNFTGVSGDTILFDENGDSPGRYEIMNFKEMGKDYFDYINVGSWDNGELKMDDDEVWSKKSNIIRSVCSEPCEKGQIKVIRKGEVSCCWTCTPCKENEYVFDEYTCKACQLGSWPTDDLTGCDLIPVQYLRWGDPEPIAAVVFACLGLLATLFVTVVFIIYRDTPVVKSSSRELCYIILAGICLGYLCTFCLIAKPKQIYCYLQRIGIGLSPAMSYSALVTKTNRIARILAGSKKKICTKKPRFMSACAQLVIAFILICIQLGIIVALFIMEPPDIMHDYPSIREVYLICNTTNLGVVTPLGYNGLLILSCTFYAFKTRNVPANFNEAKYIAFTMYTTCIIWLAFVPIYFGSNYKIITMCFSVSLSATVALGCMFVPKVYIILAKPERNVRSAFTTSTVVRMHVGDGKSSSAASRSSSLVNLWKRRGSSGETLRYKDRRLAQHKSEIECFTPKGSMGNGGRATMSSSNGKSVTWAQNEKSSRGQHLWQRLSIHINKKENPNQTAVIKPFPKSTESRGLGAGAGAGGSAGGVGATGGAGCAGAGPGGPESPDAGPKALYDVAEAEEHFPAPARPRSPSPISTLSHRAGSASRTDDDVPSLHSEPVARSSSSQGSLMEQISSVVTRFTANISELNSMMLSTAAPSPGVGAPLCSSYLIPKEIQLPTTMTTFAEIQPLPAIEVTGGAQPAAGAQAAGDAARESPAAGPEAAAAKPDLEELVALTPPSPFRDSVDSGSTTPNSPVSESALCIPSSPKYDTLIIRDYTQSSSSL
With `O=C1N[C@H](c2cccc(C#Cc3ccccc3)c2)[C@@H](c2ccccc2)O1`, the outcome was inactive.
On the same count and under the same terms, next, `O=C1N[C@H](c2cc(C#Cc3ccccc3)ccn2)[C@@H](c2ccccc2)O1`: “inactive”.
Still for that read-out and setting: the value for `O=C1N[C@H](c2ccnc(C#Cc3ccccc3)c2)[C@@H](c2ccccc2)O1` was “inactive”.
The same measure, in the same setting: next, `O=C1N[C@H](c2cccc(C#Cc3ccccc3)n2)[C@@H](c2ccccc2)O1`: “inactive”.

For another series the target is unchanged. Put plainly: Antagonist activity against human mGluR5A transfected in HEK293 cells assessed as inhibition of L-glutamate-induced calcium release up to 3 uM after 10 mins by FLIPR assay. Type of series: functional, cell-based.
Details: not given
Target sequence in this assay (P41594 21-1212 limits assumed): as above
With `O=C1N[C@H](c2cccc(C#Cc3ccccc3)c2)[C@@H](c2ccccc2)O1`, the inhibition result was “inactive”.
The same measure, in the same setting: next, `O=C1N[C@H](c2cc(C#Cc3ccccc3)ccn2)[C@@H](c2ccccc2)O1`: “inactive”; `O=C1N[C@H](c2ccnc(C#Cc3ccccc3)c2)[C@@H](c2ccccc2)O1`: “inactive”.
On to `O=C1N[C@H](c2cccc(C#Cc3ccccc3)n2)[C@@H](c2ccccc2)O1`, for which the inhibition entry was “inactive”.

System in a further series: not listed separately
Put plainly: Toxicity in C57BL/6 mouse assessed as induction of convulsions at 3 mg/kg, ip during 3 hrs study. Type of series: organism-based. As to conditions: in vivo.
Turning to `O=C1N[C@H](c2cncc(C#Cc3ccccc3)c2)[C@@H](c2cccc(F)c2)O1`, the Activity entry was “Toxic”.

System in a further series: not listed separately
Nature of the series: Toxicity in C57BL/6 mouse assessed as induction of convulsions at 30 mg/kg, ip during 3 hrs study. It is filed as organism-based. As to conditions: in vivo.
Regarding `O=C1N[C@H](c2cncc(C#Cc3ccccc3)c2)[C@@H](c2cc(F)ccc2F)O1`, the Activity entry is given as “Non-Toxic”.
Consider `O=C1N[C@H](c2cccc(C#Cc3ccccc3)n2)[C@@H](c2ccccc2)O1`, for which the Activity entry was “Non-Toxic”.

In a further series the test system is Mus musculus. Put plainly: Ex vivo receptor occupancy at mGluR5A in C57BL/6 mouse at 10 and 30 mg/kg.
Details: not given
It is filed as functional, organism-based.
On to `O=C1N[C@H](c2cncc(C#Cc3ccccc3)c2)[C@@H](c2cc(F)ccc2F)O1`, for which the outcome was Active.
